Laboratory results as given in US10233186B2, “Inhibitors of activin receptor-like kinase” (BLUEPRINT MEDICINES CORPORATION, priority 2016, dated 2019).

Columns and labels:
[1] = target: T1, ALK2 R206H (GST-tagged mutant ALK2) (Homo sapiens, UniProt Q04771, R206H); assay: ALK binding assay (LANTHASCREEN TR-FRET competitive binding, displacement of Kinase Tracer 178); settings: ALK2 R206H, LANTHASCREEN TR-FRET competitive binding; read-out: Binding Assay (IC50)
T1 construct: purchased Carna Bioscience or ThermoFisher 09-148 or PV6232
T1 sequence (Q04771 21-509 R206H): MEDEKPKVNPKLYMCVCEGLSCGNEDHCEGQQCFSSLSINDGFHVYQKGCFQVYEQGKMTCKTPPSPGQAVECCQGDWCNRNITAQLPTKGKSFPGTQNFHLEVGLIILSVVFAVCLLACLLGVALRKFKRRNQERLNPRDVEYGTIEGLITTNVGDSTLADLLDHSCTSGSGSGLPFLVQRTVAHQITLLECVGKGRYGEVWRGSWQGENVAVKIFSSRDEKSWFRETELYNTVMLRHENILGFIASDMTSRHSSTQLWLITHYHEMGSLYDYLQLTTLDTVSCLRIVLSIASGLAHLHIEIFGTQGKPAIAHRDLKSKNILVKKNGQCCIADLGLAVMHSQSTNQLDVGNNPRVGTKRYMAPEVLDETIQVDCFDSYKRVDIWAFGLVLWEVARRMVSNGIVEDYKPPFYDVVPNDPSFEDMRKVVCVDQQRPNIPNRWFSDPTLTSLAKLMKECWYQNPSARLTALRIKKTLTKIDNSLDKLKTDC

[2] = target: T2, human ALK2 R206H (Homo sapiens, UniProt Q04771, R206H); assay: Cell-based ALK2-R206H cell activity assay (Smad1-Ser463/Ser465 phosphorylation by AlphaLISA in HEK293-ALK2-R206H cells); settings: read-out: Cell Line (Cell Assay IC50)
T2 construct: expressed in transfected cells; host or cells: HEK293 (ATCC CRL1573), lentivirus transduction, blasticidin selection
T2 sequence (Q04771 21-509 R206H): T1 sequence (Q04771 21-509 R206H)
How it was run: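 Stable HEK293 cells expressing C-terminally FLAG-tagged human ALK2 R206H (lentiviral, blasticidin-selected) were treated with compounds in 10-point, 3-fold dilutions from 10 μM or 1 μM top, in duplicate. Smad1 Ser463/Ser465 phosphorylation was read by AlphaLISA.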

Compound | IC50 [1] [nM] | IC50 [2] [nM]
CC(C)N1CCC(C)(c2ccc(-c3cc4c(N5CCN(C(=O)C6CC6)CC5)ccnn4c3)cc2)CC1 [Compound 565] | < 10 | < 100
CC(C)NC(=O)N1CCN(c2ccnn3cc(-c4ccc([C@]5(C)CCCN5C(C)C)cc4)cc23)CC1 [Compound 581] | < 10 | < 100
CC(C)NC(=O)N1CCN(c2ccnn3cc(-c4ccc([C@@]5(C)CCCN5C(C)C)cc4)cc23)CC1 [Compound 582] | < 10 | < 100
CC(C)N1CCC(F)(c2ccc(-c3cc4c(N5CCN(C(=O)C6CC6)CC5)ccnn4c3)cc2)CC1 [Compound 583] | < 10 | < 100
CCOC(=O)N1CCN(c2ccnn3cc(-c4ccc(C5(C)CCN(C(C)C)CC5)cc4)cc23)CC1 [Compound 585] | < 10 | < 100
CCOC(=O)N1CCN(c2ccnn3cc(-c4ccc([C@@H]5CCCN(C(C)C)C5)cc4)cc23)C[C@H]1C [Compound 586] | < 10 | 100 to 500
CCNC(=O)N1CCN(c2ccnn3cc(-c4ccc(C5CN(C(C)C)CCN5C)cc4)cc23)CC1 (centres unmarked) [Compound 587] | < 10 | < 100
CC(C)NC(=O)N1CCN(c2ccnn3cc(-c4ccc([C@@H]5CCCN(C(C)C)C5)cn4)cc23)CC1 [Compound 588] | < 10 | < 100
CC(C)NC(=O)N1CCN(c2ccnn3cc(-c4ccc([C@H]5CCCN(C(C)C)C5)cn4)cc23)CC1 [Compound 589] | < 10 | < 100
CCNC(=O)N1CCN(c2ccnn3cc(-c4ccc([C@]5(O)CCCN(C(C)C)C5)cc4)cc23)CC1 [Compound 591] | < 10 | < 100
CCNC(=O)N1CCN(c2ccnn3cc(-c4ccc([C@@]5(O)CCCN(C(C)C)C5)cc4)cc23)CC1 [Compound 592] | < 10 | < 100
COC1(c2ccc(-c3cc4c(N5CCN(C(=O)NC(C)C)CC5)ccnn4c3)cc2)CN(C(C)C)C1 [Compound 593] | < 10 | < 100
CC(C)NC(=O)N1CCN(c2ccnn3cc(-c4ccc(C5COCCN5C(C)C)cc4)cc23)CC1 (centres unmarked) [Compound 594] | < 10 | < 100
CC(C)NC(=O)N1CCN(c2ccnn3cc(-c4ccc([C@@]5(O)CCN(C(C)C)C5)cc4)cc23)CC1 [Compound 595] | < 10 | < 100
CC(C)NC(=O)N1CCN(c2ccnn3cc(-c4ccc([C@]5(O)CCN(C(C)C)C5)cc4)cc23)CC1 [Compound 596] | < 10 | 100 to 500
CCOC(=O)N1CCN(c2ccnn3cc(-c4ccc([C@@]5(C)CN(C(C)C)CCN5)cc4)cc23)CC1 [Compound 597] | < 10 | < 100
CCOC(=O)N1CCN(c2ccnn3cc(-c4ccc([C@]5(C)CN(C(C)C)CCN5)cc4)cc23)CC1 [Compound 598] | < 10 | < 100
COC1(c2ccc(-c3cc4c(N5CCN(C(=O)OC6COC6)CC5)ccnn4c3)cc2)CCNCC1 [Compound 599] | < 10 | < 100

Compound | IC50 [1] [nM] | IC50 [2] [nM]
CO[C@@]1(c2ccc(-c3cc4c(N5CCN(C(=O)OC6COC6)CC5)ccnn4c3)cc2)CCCNC1 [Compound 600] | < 10 | < 100
CO[C@]1(c2ccc(-c3cc4c(N5CCN(C(=O)OC6COC6)CC5)ccnn4c3)cc2)CCCNC1 [Compound 601] | < 10 | < 100
CCOC(=O)N1CCN(c2ccnn3cc(-c4ccc([C@@]5(OC)CCN(C(C)C)C5)cc4)cc23)CC1 [Compound 603] | < 10 | < 100
CCOC(=O)N1CCN(c2ccnn3cc(-c4ccc([C@]5(OC)CCN(C(C)C)C5)cc4)cc23)CC1 [Compound 604] | < 10 | < 100
CCNC(=O)N1CCN(c2ccnn3cc(-c4ccc([C@]5(O)CCCN(C(C)C)C5)cn4)cc23)CC1 [Compound 605] | < 10 | < 100
CCNC(=O)N1CCN(c2ccnn3cc(-c4ccc([C@@]5(O)CCCN(C(C)C)C5)cn4)cc23)CC1 [Compound 606] | < 10 | < 100
CC(C)NC(=O)N1CCN(c2ccnn3cc(-c4ccc([C@@]5(O)CCN(C(C)C)C5)cn4)cc23)CC1 [Compound 608] | < 10 | 100 to 500
COC1(c2ccc(-c3cc4c(N5CCN(C(=O)OC6COC6)CC5)ccnn4c3)nc2)CCNCC1 [Compound 609] | < 10 | < 100
CCOC(=O)N1CCN(c2ccnn3cc(-c4ccc([C@]5(F)CCCN(C(C)C)C5)cc4)cc23)CC1 [Compound 610] | < 10 | < 100
CCOC(=O)N1CCN(c2ccnn3cc(-c4ccc([C@@]5(F)CCCN(C(C)C)C5)cc4)cc23)CC1 [Compound 611] | < 10 | < 100
CCOC(=O)N1CCN(c2ccnn3cc(-c4ccc([C@]5(F)CCCN(C(C)C)C5)cn4)cc23)CC1 [Compound 613] | < 10 | < 100
CCOC(=O)N1CCN(c2ccnn3cc(-c4ccc([C@@]5(F)CCCN(C(C)C)C5)cn4)cc23)CC1 [Compound 614] | < 10 | < 100
CC(C)N1CCC(C#N)(c2ccc(-c3cc4c(N5CCN(C(=O)C6CC6)CC5)ccnn4c3)cc2)CC1 [Compound 615] | < 10 | < 100
CC(C)N1CC(O)(c2ccc(-c3cc4c(N5CCN(C(=O)C6CC(C#N)C6)CC5)ccnn4c3)cc2)C1 (centres unmarked) [Compound 616] | < 10 | < 100
CC(C)N1CCC[C@@H](c2ccc(-c3cc4c(N5CCN(C(=O)NCCC#N)CC5)ccnn4c3)cc2)C1 [Compound 617] | < 10 | 100 to 500
CC(C)N1CCC[C@H](c2ccc(-c3cc4c(N5CCN(C(=O)NCCC#N)CC5)ccnn4c3)cc2)C1 [Compound 618] | < 10 | < 100
CC(C)N1CCN(C)[C@](C)(c2ccc(-c3cc4c(N5CCN(C(=O)C6CC6)CC5)ccnn4c3)cc2)C1 [Compound 619] | < 10 | < 100

Now from value to compound:

IC50 [1] [nM] | IC50 [2] [nM] | Compound
< 10 | < 100 | CCC(C)N1CCC[C@@H](c2ccc(-c3cc4c(N5CCN(C(=O)C6CC6)CC5)ccnn4c3)cc2)C1 (some centres unmarked) [Compound 560]
< 10 | < 100 | CC[C@H](C)N1CCC[C@@H](c2ccc(-c3cc4c(N5CCN(C(=O)C6CC6)CC5)ccnn4c3)cc2)C1 [Compound 561]
< 10 | < 100 | CC[C@@H](C)N1CCC[C@@H](c2ccc(-c3cc4c(N5CCN(C(=O)C6CC6)CC5)ccnn4c3)cc2)C1 [Compound 562]
< 10 | < 100 | CC[C@@H](C)N1CCC(c2ccc(-c3cc4c(N5CCN(C(=O)C6CC6)CC5)ccnn4c3)cc2)CC1 [Compound 563]
< 10 | < 100 | CC[C@H](C)N1CCC(c2ccc(-c3cc4c(N5CCN(C(=O)C6CC6)CC5)ccnn4c3)cc2)CC1 [Compound 564]
< 10 | < 100 | CC(C)N1CCN(C)C(c2ccc(-c3cc4c(N5CCN(C(=O)C6CC6)CC5)ccnn4c3)cc2)C1 (centres unmarked) [Compound 566]
< 10 | < 100 | CC(C)N1CCN(C)[C@@H](c2ccc(-c3cc4c(N5CCN(C(=O)C6CC6)CC5)ccnn4c3)cc2)C1 [Compound 567]
< 10 | < 100 | CC(C)N1CCN(C)[C@H](c2ccc(-c3cc4c(N5CCN(C(=O)C6CC6)CC5)ccnn4c3)cc2)C1 [Compound 568]
< 10 | < 100 | CC(C)N1CCN[C@](C)(c2ccc(-c3cc4c(N5CCN(C(=O)C6CC6)CC5)ccnn4c3)cc2)C1 [Compound 570]
< 10 | < 100 | CO[C@]1(c2ccc(-c3cc4c(N5CCN(C(=O)C6CC6)CC5)ccnn4c3)cc2)CCN(C(C)C)C1 [Compound 572]
< 10 | < 100 | CO[C@@]1(c2ccc(-c3cc4c(N5CCN(C(=O)C6CC6)CC5)ccnn4c3)cc2)CCN(C(C)C)C1 [Compound 573]
< 10 | 100 to 500 | CC(C)N1CCN[C@](C)(c2ccc(-c3cc4c(N5CCN(C(=O)C6CC6)CC5)ccnn4c3)nc2)C1 [Compound 575]
< 10 | < 100 | CC(C)N1CCN[C@@](C)(c2ccc(-c3cc4c(N5CCN(C(=O)C6CC6)CC5)ccnn4c3)nc2)C1 [Compound 576]
< 10 | < 100 | CC(C)NC(=O)N1CCN(c2ccnn3cc(-c4ccc([C@@H]5CCCN(C(C)C)C5)cc4)cc23)CC1 [Compound 577]
< 10 | < 100 | CC(C)NC(=O)N1CCN(c2ccnn3cc(-c4ccc([C@H]5CCCN(C(C)C)C5)cc4)cc23)CC1 [Compound 578]
< 10 | < 100 | CCCNC(=O)N1CCN(c2ccnn3cc(-c4ccc([C@H]5CCCN(C(C)C)C5)cc4)cc23)CC1 [Compound 579]
< 10 | < 100 | CCCNC(=O)N1CCN(c2ccnn3cc(-c4ccc([C@@H]5CCCN(C(C)C)C5)cc4)cc23)CC1 [Compound 580]
